In assay [1] the target is T1, 5-hydroxytryptamine receptor 2A (Homo sapiens, UniProt P28223). The assay is described as follows: Affinity for 5-hydroxytryptamine 2A receptor.
In assay [2] the target is Serotonin 2 receptors; 5-HT2a & 5-HT2c (Homo sapiens) (UniProt P28223+P28335). The assay is described as follows: Relative affinity for 5-HT2C over 5-HT2A receptors. The assay is classed as protein assay.
Assay [3] concerns the target T2, 5-hydroxytryptamine receptor 2C (Homo sapiens, UniProt P28335).
T2 sequence (P28335 whole entry): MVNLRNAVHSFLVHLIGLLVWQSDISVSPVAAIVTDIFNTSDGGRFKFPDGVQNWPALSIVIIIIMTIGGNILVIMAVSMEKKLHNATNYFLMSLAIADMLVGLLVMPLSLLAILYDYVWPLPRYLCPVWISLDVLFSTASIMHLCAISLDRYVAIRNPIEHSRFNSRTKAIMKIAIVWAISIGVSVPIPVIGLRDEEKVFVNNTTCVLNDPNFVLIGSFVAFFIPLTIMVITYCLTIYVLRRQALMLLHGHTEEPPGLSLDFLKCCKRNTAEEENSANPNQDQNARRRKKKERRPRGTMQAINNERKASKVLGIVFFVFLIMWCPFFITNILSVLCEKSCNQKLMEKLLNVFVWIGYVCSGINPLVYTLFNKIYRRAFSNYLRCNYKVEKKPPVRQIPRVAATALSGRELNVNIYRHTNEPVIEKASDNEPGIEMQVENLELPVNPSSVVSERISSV
The assay is described as follows: Affinity for 5-hydroxytryptamine 2C receptor.

Assay [4] addresses T3, 5-hydroxytryptamine receptor 2C (Homo sapiens) (UniProt P28335).
T3 sequence (whole entry): T2 sequence (P28335 whole entry)
The assay is described as follows: Binding affinity towards 5-hydroxytryptamine 2C receptor was determined at a concentration of 0.00001 mol/L.

Assay [5] addresses T1, 5-hydroxytryptamine receptor 2A. The assay is described as follows: Binding affinity towards 5-hydroxytryptamine 2A receptor was determined at a concentration of 0.00001 mol/L.
For assay [6] the target is unchanged. The assay is described as follows: Binding affinity towards 5-hydroxytryptamine 2A receptor was determined at a concentration of 0.000001 mol/L.
Assay [7] has as its target T3, 5-hydroxytryptamine receptor 2C (Homo sapiens). The assay is described as follows: Binding affinity towards 5-hydroxytryptamine 2C receptor was determined at a concentration of 0.000001 mol/L.

The source of these data is ChEMBL document CHEMBL1134934, “Synthesis and evaluation of 5-HT(2A) and 5-HT(2C) receptor binding affinities of novel pyrimidine derivatives” (Bioorg Med Chem Lett, 2002).

T1 sequence (P28223 whole entry): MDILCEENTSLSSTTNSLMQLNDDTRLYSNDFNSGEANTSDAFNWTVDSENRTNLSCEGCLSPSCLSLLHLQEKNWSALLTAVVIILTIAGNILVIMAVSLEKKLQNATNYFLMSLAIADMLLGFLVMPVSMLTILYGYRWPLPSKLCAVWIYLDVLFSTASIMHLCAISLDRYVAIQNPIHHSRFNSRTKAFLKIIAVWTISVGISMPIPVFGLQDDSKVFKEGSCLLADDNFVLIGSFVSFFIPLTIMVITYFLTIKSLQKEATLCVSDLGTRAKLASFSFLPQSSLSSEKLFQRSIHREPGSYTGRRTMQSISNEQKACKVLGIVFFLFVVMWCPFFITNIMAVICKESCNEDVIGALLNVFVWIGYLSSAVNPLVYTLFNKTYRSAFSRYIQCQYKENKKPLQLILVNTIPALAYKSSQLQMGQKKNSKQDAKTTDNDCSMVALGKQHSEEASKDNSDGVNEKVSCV
Serotonin 2 receptors; 5-HT2a & 5-HT2c (Homo sapiens), sequence (P28223 whole entry, looked up, one chain of several): as the sequence (P28223 whole entry) above

Consider `COc1ccc(Cc2c(N)nc(SCCN3CCN(Cc4ccccc4C)CC3)nc2N)cc1`, for which the Ki (usually the dissociation constant of the complex between target and ligand, obtained from inhibition or displacement) is 11.5 nM in assay [1] and 16.4 nM in assay [3]. In addition, the Ratio in assay [2] came out at 0.7.

`Nc1cc(N)nc(SCCN2CCN(Cc3ccc([N+](=O)[O-])cc3)CC2)n1`: the values for the inhibition in assay [4] and in assay [5] were 77% and 89%, respectively.

For `Nc1nc(SCCN2CCN(Cc3ccccc3Cl)CC2)nc(N)c1Cc1ccccc1O`, the inhibition constant (Ki) in assay [1] came to 22.8 nM; in assay [3], 5.5 nM. Moreover, the Ratio in assay [2] came to 4.2.

`COc1ccccc1Cc1c(N)nc(SCCN2CCN(Cc3ccccc3C(F)(F)F)CC2)nc1N`: the inhibition constant Ki in assay [1] came out at 47.7 nM; in assay [3], 7.7 nM. In addition, in assay [2], the Ratio was 6.2.

In the case of `CC(C)Oc1ccccc1Cc1c(N)nc(SCCN2CCN(Cc3cccc(C(F)(F)F)c3)CC2)nc1N`, the Ki is 121 nM in assay [1] and 8.6 nM in assay [3]. For the same compound, the Ratio in assay [2] is 14.

Regarding `Nc1nc(SCCN2CCN(Cc3ccccc3Cl)CC2)nc(N)c1Cc1ccccc1`, the results for the inhibition constant Ki in assay [1] and in assay [3] were 18.3 nM and 11.9 nM, respectively. Besides, the Ratio in assay [2] amounted to 1.5.

For `COc1cc(Cc2c(N)nc(SCCN3CCN(Cc4ccccc4Cl)CC3)nc2N)cc(OC)c1OC`, the values for the inhibitory constant (Ki) in assay [1] and in assay [3] were 4.3 nM and 18.3 nM, respectively. The Ratio in assay [2] came to 0.2.

As for `COc1ccc(Cc2c(N)nc(SCCN3CCN(Cc4ccccc4Cl)CC3)nc2N)cc1`, the Ki came out at 5.7 nM in assay [1] and 10.4 nM in assay [3]. Moreover, the Ratio in assay [2] came to 0.6.

`Nc1nc(SCCN2CCN(Cc3cccc(C(F)(F)F)c3)CC2)nc(N)c1Cc1ccccc1O`: the inhibition constant (Ki) in assay [1] was determined as 93.2 nM; in assay [3], 6.2 nM. In assay [2], the Ratio was determined as 15.

Turning to `COc1ccccc1Cc1c(N)nc(SCCN2CCN(Cc3cccc(C(F)(F)F)c3)CC2)nc1N`, the Ki in assay [1] is 60.4 nM; in assay [3], 5.5 nM. Besides, the Ratio in assay [2] came out at 11.

For the compound `Nc1cc(N)nc(SCCCN2CCN(Cc3ccc([N+](=O)[O-])cc3)CC2)n1`, the inhibition (in general, the relative decrease from the control value, in per cent) in assay [4] came out at 21%; in assay [5], 54%.

Take `Nc1nc(SCCN2CCN(Cc3ccc([N+](=O)[O-])cc3)CC2)nc(N)c1CC1CCCCC1`: the inhibition in assay [4] is 32%; in assay [5], 10%.

In the case of `COc1ccc(Cc2c(N)nc(SCCN3CCN(Cc4ccc(C)cc4)CC3)nc2N)cc1`, the inhibitory constant (Ki) amounted to 12.5 nM in assay [1] and 300 nM in assay [3]. Also, in assay [2], the Ratio was 0.04.

For the compound `Nc1nc(SCCN2CCN(Cc3ccccc3Cl)CC2)nc(N)c1Cc1ccccc1Cl`, the Ki in assay [1] worked out at 11.8 nM; in assay [3] it was 8.7 nM. For the same compound, the Ratio in assay [2] was 1.4.

In the case of `Nc1nc(SCCN2CCN(Cc3ccc([N+](=O)[O-])cc3)CC2)nc(N)c1Cc1ccccc1`, the results for the inhibition in assay [6] and in assay [7] were 99% and 67%, respectively.

Take `CCOc1ccccc1Cc1c(N)nc(SCCN2CCN(Cc3cccc(C(F)(F)F)c3)CC2)nc1N`: the Ki was 69.9 nM in assay [1] and 9.1 nM in assay [3]. Further, in assay [2], the Ratio came out at 7.7.

Turning to `Nc1nc(SCCN2CCN(Cc3ccccc3C(F)(F)F)CC2)nc(N)c1Cc1ccccc1`, the Ki in assay [1] was determined as 61.1 nM; in assay [3] it was 21.4 nM. Also, in assay [2], the Ratio was determined as 2.9.

`COc1cccc(Cc2c(N)nc(SCCN3CCN(Cc4cccc(C(F)(F)F)c4)CC3)nc2N)c1`: the values for the inhibition constant (Ki) in assay [1] and in assay [3] were 44.6 nM and 4.9 nM, respectively. The Ratio in assay [2] amounted to 9.1.
